Experimental data taken from US9580396B2, “C6-spiro iminothiadiazine dioxides as BACE inhibitors, compositions, and their use” (Merck Sharp & Dohme Corp., priority 2012, dated 2017).
pKi: −log10 of the molar value.

What was measured:
[1] = molecular target: soluble human BACE1 catalytic domain (Homo sapiens (Human), UniProt P56817); assay: BACE1 HTRF FRET Assay; type: biochemical; conditions: Ki calculated from IC50 using the Cheng-Prusoff equation; QSY7-APPswe-Eu substrate, pH 5.0
Excerpt: Na^+-Acetate pH 5.0; 1% Brij-35; Glycerol; Dimethyl Sulfoxide (DMSO); Recombinant human soluble BACE1 catalytic domain (>95% pure); APP Swedish mutant peptide substrate (QSY7-APP^swe-Eu): QSY7-EISEVNLDAEFC-Europium-amide.
A homogeneous time-resolved FRET assay can be used to determine IC50 values for inhibitors of the soluble human BACE1 catalytic domain. This assay monitors the increase of 620 nm fluorescence that resulted from BACE1 cleavage of an APPswedish APP^swe mutant peptide FRET substrate (QSY7-EISEVNLDAEFC-Europium-amide). This substrate contains an N-terminal QSY7 moiety that serves as a quencher of the C-terminal Europium fluorophore (620 nm Em). In the absence of enzyme activity, 620 nm fluorescence is low in the assay and increased linearly over 3 hours in the presence of uninhibited BACE1 enzyme Inhibition of BACE1 cleavage of the QSY7-APP^swe-Eu substrate by inhibitors is manifested as a suppression of 620 nm fluorescence.
Varying concentrations of inhibitors at 3× the final desired concentration in a volume of 10 ul are preincubated with purified human BACE1 catalytic domain (3 nM in 10 μl) for 30 minutes at 30° C. in reaction buffer containing 20 mM Na-Acetate pH 5.0, 10% glycerol, 0.1% Brij-35 and 7.5% DSMO. Reactions are initiated by addition of 10 μl of 600 nM QSY7-APP^swe-Eu substrate (200 nM final) to give a final reaction volume of 30 μl in a 384 well Nunc HTRF plate. The reactions are incubated at 30° C. for 1.5 hours. The 620 nm fluorescence is then read on a Rubystar HTRF plate reader (BMG Labtechnologies) using a 50 millisecond delay followed by a 400 millisecond acquisition time window Inhibitor IC50 values are derived from non-linear regression analysis of concentration response curves. Ki values are then calculated from IC50 values using the Cheng-Prusoff equation using a previously determined […] of 8 μM for the QSY7-APP^swe-Eu substrate at BACE1.

[2] = molecular target: purified human autoBACE-2 (Homo sapiens (Human), UniProt Q9Y5Z0); assay: BACE-2 Assay (BACE-HTRF assay); type: biochemical; conditions: Ki calculated from IC50 using the Cheng-Prusoff equation; QSY7-EISEVNLDAEFC-Eu-amide substrate, pH 5.0; read-out: BACE2 Ki
Procedure: Inhibitor IC50s at purified human autoBACE-2 are determined in a time-resolved endpoint proteolysis assay that measures hydrolysis of the QSY7-[…]-Eu-amide FRET peptide substrate (BACE-HTRF assay). […] DMSO is present at 5% final concentration in the assay. Following laser excitation of sample wells at 320 nm, the fluorescence signal at 620 nm is collected for 400 ms following a 50 μs delay on a RUBYstar HTRF plate reader (BMG Labtechnologies). Raw RFU data is normalized to maximum (1.0 nM BACE/DMSO) and minimum (no enzyme/DMSO) RFU values. […] The Ki values are calculated from the IC50 using the Cheng-Prusoff equation.

Sequence of purified human autoBACE-2 (Q9Y5Z0 63-473): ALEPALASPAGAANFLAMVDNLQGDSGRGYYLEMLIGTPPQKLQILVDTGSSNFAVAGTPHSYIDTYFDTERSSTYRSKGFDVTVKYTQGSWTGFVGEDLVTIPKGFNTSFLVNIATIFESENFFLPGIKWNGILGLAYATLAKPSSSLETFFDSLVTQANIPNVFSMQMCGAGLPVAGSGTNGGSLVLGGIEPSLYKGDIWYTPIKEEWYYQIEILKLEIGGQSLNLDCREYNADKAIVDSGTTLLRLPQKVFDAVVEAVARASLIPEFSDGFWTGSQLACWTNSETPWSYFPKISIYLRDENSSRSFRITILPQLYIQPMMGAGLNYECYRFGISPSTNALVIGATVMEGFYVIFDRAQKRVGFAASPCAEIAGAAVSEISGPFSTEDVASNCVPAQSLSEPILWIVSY
Sequence of soluble human BACE1 catalytic domain (P56817 75-416): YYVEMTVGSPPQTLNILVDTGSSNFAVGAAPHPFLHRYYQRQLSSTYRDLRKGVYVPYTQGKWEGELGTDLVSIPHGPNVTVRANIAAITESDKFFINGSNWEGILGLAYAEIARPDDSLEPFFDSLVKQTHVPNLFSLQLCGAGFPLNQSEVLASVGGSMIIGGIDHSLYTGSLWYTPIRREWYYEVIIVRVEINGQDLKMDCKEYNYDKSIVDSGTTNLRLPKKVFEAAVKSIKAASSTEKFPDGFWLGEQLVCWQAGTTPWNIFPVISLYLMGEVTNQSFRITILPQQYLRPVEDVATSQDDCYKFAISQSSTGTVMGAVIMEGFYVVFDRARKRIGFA

SMILES	pKi [1]	pKi [2]
CN1C(=N)N[C@@]2(CCCc3ccc(NC(=O)c4ncc(Cl)cc4F)cc32)CS1(=O)=O [Example 5k]	7.27	8.10
Cc1nc(C(=O)Nc2ccc3c(c2)[C@]2(CCC3)CS(=O)(=O)N(C)C(=N)N2)co1 [Example 5h]	6.97	7.96
C#CCOc1cnc(C(=O)Nc2ccc3c(c2)[C@]2(CCC3)CS(=O)(=O)N(C)C(=N)N2)cn1 [Example 5l]	7.96	7.11
CN1C(=N)N[C@@]2(CCCc3ccc(NC(=O)c4cnsn4)cc32)CS1(=O)=O [Example 5t]	6.58	7.25
CN1C(=N)N[C@@]2(CCCc3ccc(NC(=O)c4ncc(C(F)(F)F)cn4)cc32)CS1(=O)=O [Example 5j]	6.33	6.37
